ChEMBL document CHEMBL3885881, “DrugMatrix”

Organism: Rattus norvegicus
Assay: DrugMatrix - Regimen: Daily Repeat
Format: toxicity, organism-based, Sprague-Dawley
Set-up: regimen Daily Repeat, gender Male, age 6-8 weeks
Settings: in vivo, po, route oral GAVAGE, vehicle 100 % SALINE; for ABSOLUTE BASOPHIL / ABSOLUTE EOSINOPHIL / ABSOLUTE LYMPHOCYTE / ABSOLUTE MONOCYTE / ABSOLUTE SEGMENTED NEUTROPHIL / BASOPHIL / EOSINOPHIL / ERYTHROCYTE COUNT / HEMATOCRIT / HEMOGLOBIN / LEUKOCYTE COUNT / LYMPHOCYTE / MEAN CORPUSCULAR HEMOGLOBIN / MEAN CORPUSCULAR HEMOGLOBIN CONCENTRATION / MEAN CORPUSCULAR VOLUME / MONOCYTE / NEUTROPHIL / NUCLEATED RED BLOOD CELLS / PLATELET COUNT: tissue Blood; for ALANINE AMINOTRANSFERASE / ALBUMIN / ALKALINE PHOSPHATASE / ASPARTATE AMINOTRANSFERASE / BLOOD UREA NITROGEN / CARBON DIOXIDE / CHLORIDE / CHOLESTEROL / CREATINE PHOSPHOKINASE / CREATININE / GLUCOSE / LACTATE DEHYDROGENASE / LIPASE / PHOSPHORUS / POTASSIUM / SODIUM / TOTAL BILIRUBIN / TOTAL PROTEIN / URIC ACID: tissue Plasma
[1] = 0 mg/kg, 72 h, dose level Control, time 3 day
[2] = 0 mg/kg, […], dose level Control, time 7 day
[3] = 10 mg/kg, 72 h, dose level Low, time 3 day

## O=[As][O-].[Na+] [SODIUM ARSENITE]
[1]
  ABSOLUTE BASOPHIL: 0 CELLS/uL
  ABSOLUTE EOSINOPHIL: 66 CELLS/uL
  ABSOLUTE LYMPHOCYTE: 11922.83 CELLS/uL
  ABSOLUTE MONOCYTE: 401.5 CELLS/uL
  ABSOLUTE SEGMENTED NEUTROPHIL: 1526.33 CELLS/uL
  BASOPHIL: 0%
  EOSINOPHIL: 0.5%
  ERYTHROCYTE COUNT: 5.62 x10E6/uL
  HEMATOCRIT: 37.17%
  HEMOGLOBIN: 13.53 G/DL
  LEUKOCYTE COUNT: 13.92 x10E3/uL
  LYMPHOCYTE: 86.17%
  MEAN CORPUSCULAR HEMOGLOBIN: 24.07 pg
  MEAN CORPUSCULAR HEMOGLOBIN CONCENTRATION: 36.42 G/DL
  MEAN CORPUSCULAR VOLUME: 66.1 fL
  MONOCYTE: 3%
  NEUTROPHIL: 10.33%
  NUCLEATED RED BLOOD CELLS: 0 /100WBC
  PLATELET COUNT: 1107 x10E3/uL
  ALANINE AMINOTRANSFERASE: 45.33 u/L
  ALBUMIN: 4.3 G/DL
  ALKALINE PHOSPHATASE: 321.33 u/L
  ASPARTATE AMINOTRANSFERASE: 77.33 u/L
  BLOOD UREA NITROGEN: 14.33 mg/dL
  CARBON DIOXIDE: 32.33 mmol/L
  CHLORIDE: 99.67 MEQ/L
  CHOLESTEROL: 82.33 mg/dL
  CREATINE PHOSPHOKINASE: 205.5 u/L
  CREATININE: 0.19 mg/dL
  GLUCOSE: 150.83 mg/dL
  LACTATE DEHYDROGENASE: 88.17 u/L
  LIPASE: 10.83 u/L
  PHOSPHORUS: 10.9 mg/dL
  POTASSIUM: 5.83 MEQ/L
  SODIUM: 145.15 MEQ/L
  TOTAL BILIRUBIN: 0.12 mg/dL
  TOTAL PROTEIN: 6.22 G/DL
  URIC ACID: 1 mg/dL
[2]
  ABSOLUTE BASOPHIL: 0 CELLS/uL
  ABSOLUTE EOSINOPHIL: 22 CELLS/uL
  ABSOLUTE LYMPHOCYTE: 11105.17 CELLS/uL
  ABSOLUTE MONOCYTE: 258.17 CELLS/uL
  ABSOLUTE SEGMENTED NEUTROPHIL: 881.33 CELLS/uL
  BASOPHIL: 0%
  EOSINOPHIL: 0.17%
  ERYTHROCYTE COUNT: 5.29 x10E6/uL
  HEMATOCRIT: 34.03%
  HEMOGLOBIN: 13.67 G/DL
  LEUKOCYTE COUNT: 12.27 x10E3/uL
  LYMPHOCYTE: 90.83%
  MEAN CORPUSCULAR HEMOGLOBIN: 25.9 pg
  MEAN CORPUSCULAR HEMOGLOBIN CONCENTRATION: 40.18 G/DL
  MEAN CORPUSCULAR VOLUME: 64.42 fL
  MONOCYTE: 2.17%
  NEUTROPHIL: 6.83%
  NUCLEATED RED BLOOD CELLS: 0 /100WBC
  PLATELET COUNT: 1159.83 x10E3/uL
  ALANINE AMINOTRANSFERASE: 45.83 u/L
  ALBUMIN: 4.1 G/DL
  ALKALINE PHOSPHATASE: 240 u/L
  ASPARTATE AMINOTRANSFERASE: 88.67 u/L
  BLOOD UREA NITROGEN: 13.67 mg/dL
  CARBON DIOXIDE: 31.83 mmol/L
  CHLORIDE: 96.83 MEQ/L
  CHOLESTEROL: 71.17 mg/dL
  CREATINE PHOSPHOKINASE: 202.5 u/L
  CREATININE: 0.22 mg/dL
  GLUCOSE: 132.67 mg/dL
  LACTATE DEHYDROGENASE: 107.17 u/L
  LIPASE: 10.5 u/L
  PHOSPHORUS: 10.47 mg/dL
  POTASSIUM: 6.23 MEQ/L
  SODIUM: 140.73 MEQ/L
  TOTAL BILIRUBIN: 0.12 mg/dL
  TOTAL PROTEIN: 6.18 G/DL
  URIC ACID: 0.87 mg/dL
[3]
  ABSOLUTE BASOPHIL: 0 CELLS/uL
  ABSOLUTE EOSINOPHIL: 54.67 CELLS/uL
  ABSOLUTE LYMPHOCYTE: 10489.83 CELLS/uL
  ABSOLUTE MONOCYTE: 135 CELLS/uL
  ABSOLUTE SEGMENTED NEUTROPHIL: 1470.5 CELLS/uL
  BASOPHIL: 0%
  EOSINOPHIL: 0.5%
  ERYTHROCYTE COUNT: 5.25 x10E6/uL
  HEMATOCRIT: 34.42%
  HEMOGLOBIN: 12.32 G/DL
  LEUKOCYTE COUNT: 12.15 x10E3/uL
  LYMPHOCYTE: 86.33%
  MEAN CORPUSCULAR HEMOGLOBIN: 23.48 pg
  MEAN CORPUSCULAR HEMOGLOBIN CONCENTRATION: 35.82 G/DL
  MEAN CORPUSCULAR VOLUME: 65.58 fL
  MONOCYTE: 1.17%
  NEUTROPHIL: 12%
  NUCLEATED RED BLOOD CELLS: 0.17 /100WBC
  PLATELET COUNT: 1089.17 x10E3/uL
  ALANINE AMINOTRANSFERASE: 43.5 u/L
  ALBUMIN: 4.08 G/DL
  ALKALINE PHOSPHATASE: 226.5 u/L
  ASPARTATE AMINOTRANSFERASE: 76.83 u/L
  BLOOD UREA NITROGEN: 10.5 mg/dL
  CARBON DIOXIDE: 25.83 mmol/L
  CHLORIDE: 100.17 MEQ/L
  CHOLESTEROL: 72 mg/dL
  CREATINE PHOSPHOKINASE: 296.17 u/L
  CREATININE: 0.2 mg/dL
  GLUCOSE: 151.5 mg/dL
  LACTATE DEHYDROGENASE: 177.33 u/L
  LIPASE: 10.33 u/L
  PHOSPHORUS: 11.43 mg/dL
  POTASSIUM: 5.33 MEQ/L
  SODIUM: 142.73 MEQ/L
  TOTAL BILIRUBIN: 0.15 mg/dL
  TOTAL PROTEIN: 5.93 G/DL
  URIC ACID: 1 mg/dL
